Here are results for 2 molecules from patent publication US9783572B2, “Synthesis of syrbactin proteasome inhibitors” (The Regents of the University of California, priority 2009, dated 2017).

Structures are written as SMILES.

The subject of one data set is proteasome. In words: Syringolin A treatment of a human neuroblastoma cell line. The data set is classed as cell-based. The settings on record: 25 μM. The source says:
They are members of a bioactive natural product family and includes the glidobactins/cepafungins now referred to as the syrbactins. Crystallography established that both syringolin A and B form a covalent adduct with the proteasome via conjugate addition of the N-terminal threonine hydroxyl group to their α,β-unsaturated lactams. Given the known properties of proteasome inhibitors, the action of syringolin A in cancer cells was investigated.

The test system of data set [1] is ubiquitinated proteins (proteasome activity) in REH cells. In words: Western blot with anti-ubiquitin antibody in treated REH cells (FIG. 3). Format: cell-based, human. As to conditions: increasing concentrations. The text has this:
An antibody against ubiquitin to reveal the presence of ubiquitinated proteins, which accumulate (and present as a smear, due to different molecular weights) in response to the inhibition of proteasome activity. Actin was used as a loading control.

Data set [2] relates to RPMI/8226 multiple myeloma cell line. In words: Percent survival of cells, multiple myeloma versus leukemia line (FIG. 2). Format: cell-based. As to conditions: FIG. 2, percent survival. The source says:
Bortezomib (BZM), the first proteasome inhibitor to reach the clinic, is being used to treat patients with multiple myeloma and mantle cell lymphoma, and this is reflective of this agent's differential potency in different tumor cell types.

As for `CC(C)[C@H](NC(=O)N[C@H](C(=O)N[C@H]1/C=C/CCNC(=O)/C=C/[C@H](C(C)C)NC1=O)C(C)C)C(=O)O` [syringolin A], in the data set with proteasome, the “accumulation of ubiquitinated proteins” value was “time-dependent accumulation of ubiquitinated proteins” and the proteasome activity entry is recorded as “dose-dependent decrease in proteasome activity”.

As for `CC(C)C[C@H](NC(=O)[C@H](Cc1ccccc1)NC(=O)c1cnccn1)B(O)O` [BZM, Bortezomib], the “accumulation of ubiquitinated proteins” value in data set [1] is recorded as “substantial accumulation of ubiquitinated proteins”. Also, the “cytotoxicity in RPMI/8226 multiple myeloma cells compared with REH acute lymphocytic leukemia cells” value in data set [2] is “more cytotoxic to multiple myeloma cells”.
